This note sets out measurements from publication PMC5635695, “More than Enzymes That Make or Break Cyclic Di-GMP—Local Signaling in the Interactome of GGDEF/EAL Domain Proteins of Escherichia coli” (mBio, 2017).

The structures appear in SMILES notation.

The assay has as its target T1, CdgI GGDEF domain (GGDEF^CdgI) (Escherichia coli, UniProt P76236).
T1 construct: isolated cytoplasmic GGDEF domain (degenerate A-site, intact I-site), N-terminal MASE4 membrane domain removed; N-terminal His6 tag kept; pQE30xa in E. coli Fi8202
Nature of the assay: UV cross-linking with [alpha-32P]c-di-GMP, SDS-PAGE. The class given is binding. As to conditions: 42 nM radiolabelled c-di-GMP, competition with unlabelled c-di-GMP; labelled compound.

T1 sequence (P76236 315-491): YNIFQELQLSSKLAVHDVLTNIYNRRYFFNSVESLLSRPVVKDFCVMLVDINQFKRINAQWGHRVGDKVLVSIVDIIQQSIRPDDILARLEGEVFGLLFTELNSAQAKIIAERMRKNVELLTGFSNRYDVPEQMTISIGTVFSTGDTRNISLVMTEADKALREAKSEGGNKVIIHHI

As for `Nc1nc2c(ncn2[C@@H]2O[C@@H]3COP(=O)(O)O[C@H]4[C@@H](O)[C@H](n5cnc6c(=O)[nH]c(N)nc65)O[C@@H]4COP(=O)(O)O[C@H]3[C@H]2O)c(=O)[nH]1` [c-di-GMP], the “UV cross-linking with [alpha-32P]c-di-GMP, SDS-PAGE” value was “We observed that purified CdgI could indeed bind c-di-GMP”.
